In patent US10160867B2, “Benzoxaborole-containing coating resistant to cellulose-supportable fungus” (THE PENN STATE RESEARCH FOUNDATION, priority 2015, dated 2018):
Values after ≈ are worked out from the molar mass of the structure shown.

What was measured:
Type in all cases: cell-based
Stachybotrys chartarum [1] = test: Fungus resistance test after painting over fungal growth (defacement rating); conditions: painting over contaminated surfaces; paints containing 100 μg/mL; after 7 days
From the text: In this series of experiments, fungal growth was allowed to cover a painted surface (surface containing 2 coats of the unaltered paint) to a defacement rating of 3-5, forming a ‘contaminated surface’. […] The paint application was extended approximately 1-2 cm beyond the edge of the disc onto the NSA medium. Each formulation used a separate brush to avoid cross contamination. The re-painted discs were placed back into the humid environment with elevated temperature to encourage fungal growth.
This test was used to evaluate the ability of paint films containing antifungal additives to prevent the re-emergence of fungal growth after painting over existing growth.
Olympic® Home interior flat latex paint (PPG Industries, Pittsburgh, Pa.) and Valspar® QuikHide White flat interior paint (Valspar Corporation, Minneapolis, Minn.) were used for the experiments in this study unless specified. Stock solutions of the antifungal additives of interest were prepared in reagent grade dimethyl sulfoxide (DMSO; Alfa Aesar, Ward Hill, Mass.). Additives were spiked (by adding appropriate amounts of the antifungal stock solutions) into the liquid paint at specified concentrations. Samples of additive-spiked paint were vigorously mixed with a vortex mixer for at least one minute to insure uniform dispersion of the additive in the paint. […] Studies that used other brands of paint followed the same protocol as described for those using the Olympic® Home interior flat latex paint.
Test surfaces were prepared in triplicate. In most cases, the tested conditions were repeated on a different date, again in triplicate. […] Two coats of paint were applied with a polyester brush to completely cover both faces of the filter paper disc, allowing at least four hours drying time between coats.
Nutrient-Salts Agar (NSA) media was prepared according to ASTM method G21-13 in 100×15 mm sterile polystyrene petri dishes (VWR® Radnor, Pa.) with a solidified agar layer from 3 to 6 mm (⅛ to ¼ in.) in depth. The agar was allowed to solidify for at least 24 hours before being used. The painted test filter paper discs were placed in the center of the agar plates in a biosafety hood while wearing clean nitrile gloves.
The paint coatings were evaluated against three representative fungi: Stachybotrys chartarum, Penicillium chrysogenum, and Alternaria alternata. […] Fungal isolates of Alternaria alternata and Penicillium chrysogenum were obtained from the Plant Pathology and Environmental Microbiology Department at Penn State University.
A spore suspension of each of these fungi was prepared by pouring a 20-mL portion of autoclaved deionized water containing 0.01% Tween® 20 onto a subculture of each fungal species. Spores were counted with the use of a hemocytometer (Hausser Scientific, Horsham, Pa.) under a microscope. Spore suspensions of Stachybotrys chartarum and Penicillium chrysogenum were diluted to 1×10^6 spores/mL with autoclaved deionized water. Spore suspensions of Alternaria alternata were used “as is” in the range of 200,000 to 400,000 spores/mL.
Painted test surfaces were inoculated with a spray bottle or with a cotton-tipped applicator. To inoculate the sample with a spray bottle, the spore suspension was sprayed twice on the painted test discs with a spray bottle that delivered approximately 0.14 g of fluid per spray. To inoculate the sample with a cotton-tipped applicator, an autoclaved cotton-tipped applicator was submerged in approximately 400 μL of the inoculum solution and applied evenly over the surface of the painted test surface twice.

Mucor spp. = test: 3 day MIC, broth microdilution in 25% PDB; conditions: 72 h
Experimental: (§1) Stock solutions (concentrations of between 4,000 μg/mL to 10,000 μg/mL; stored at −18° C.) of the above antifungals were prepared in dimethyl sulfoxide (DMSO). The stock solutions were further diluted into sterile 25% potato dextrose broth (PDB) so that the diluted solutions could be used for the antifungal susceptibility studies. This way, a typical microdilution study would reach a final ratio of about 0.5-2% v/v of DMSO in 25% PDB.
(§2) Spore inocula were prepared in sterile distilled water with 0.1% Tween® 20 (a polysorbate surfactant), and a hemocytometer was used to determine the spore density. Typically, the spore inoculum was prepared fresh prior to each study, and the inoculum was appropriately diluted to a final concentration of 0.4-1×10^5 spores/mL or colony-forming unit (CFU)/mL in each study. The spore suspension can be stored in a refrigerator at 4° C. for up to one week.
(§3) The minimal inhibitory concentrations (MICs) for individual antifungal agents were determined by following a modified broth microdilution protocol CLSI (Clinical and Laboratory Standards Institute) M38-A2 [Clinical and Laboratory Standards Institute (2008) Reference method for broth dilution antifungal susceptibility testing of filamentous fungi—2nd edition: Approved Standard M38-A2, CLSI, Wayne, Pa.] where 25% potato dextrose broth (PDB) was used as the medium. The studies were performed in flat bottom, 96-well microtiter plates (Greiner Bio-One, Frickenhausen, Germany).
(§4) Plates sealed with clear polyester film (VWR, Radnor, Pa.) were incubated at a temperature of about 25° C. The progress of fungal growth was monitored at 48 hours and 72 hours.

Fusarium oxysparum ST-33 = test: 3 day MIC, broth microdilution in 25% PDB; conditions: ST33, 72 h
Experimental: as §1, §2, §3, §4

Aspergillus niger = test: 3 day MIC, broth microdilution in 25% PDB; conditions: 72 h
Experimental: as §1, §2, §3, §4

Aspergillus flavus = test: 3 day MIC, broth microdilution in 25% PDB; conditions: 72 h
Experimental: as §1, §2, §3, §4

Aspergillus fumigatus = test: 3 day MIC, broth microdilution in 25% PDB; conditions: 72 h
Experimental: as §1, §2, §3, §4

Rhizopus spp. = test: 3 day MIC, broth microdilution in 25% PDB; conditions: 72 h
Experimental: as §1, §2, §3, §4

Aureobasidium pullulans = test: 3 day MIC, broth microdilution in 25% PDB; conditions: 72 h
Experimental: as §1, §2, §3, §4

Stachybotrys chartarum [2] = test: 3 day MIC, broth microdilution in 25% PDB; conditions: 72 h, 25% PDB, read-out: 3 day MIC
Experimental: as §1, §2
(§5) The studies were performed in flat bottom, 96-well microtiter plates (Greiner Bio-One, Frickenhausen, Germany).
as §4

Alternaria alternata = test: 3 day MIC, broth microdilution in 25% PDB; conditions: 72 h, 25% PDB, read-out: 3 day MIC
Experimental: as §1, §2, §5, §4

Penicillium corylophilum = test: 3 day MIC, broth microdilution in 25% PDB; conditions: 72 h, 25% PDB, read-out: 3 day MIC
Experimental: as §1, §2, §5, §4

Penicillium chrysogenum = test: 3 day MIC, broth microdilution in 25% PDB; conditions: 72 h, 25% PDB, read-out: 3 day MIC
Experimental: as §1, §2, §5, §4

[3] = tested on: Penicillium brevicompactum; test: 3 day MIC, broth microdilution in 25% PDB; conditions: 72 h, 25% PDB, read-out: 3 day MIC
Experimental: as §1, §2, §5, §4

Penicillium purpurogenum = test: 3 day MIC, broth microdilution in 25% PDB; conditions: 72 h; Penicillium purpurogenum; 25% PDB; read-out: 3 day MIC
Experimental: as §1, §2, §5, §4

SMILES	ability to inhibit Stachybotrys chartarum re-emergence on the surfaces (Stachybotrys chartarum [1])	MIC (Mucor spp.)	MIC (Fusarium oxysparum ST-33)	MIC (Aspergillus niger)	MIC (Aspergillus flavus)	MIC (Aspergillus fumigatus)	MIC (Rhizopus spp.)	MIC (Aureobasidium pullulans)	MIC (Stachybotrys chartarum [2])	MIC (Alternaria alternata)	MIC (Penicillium corylophilum)	MIC (Penicillium chrysogenum)	MIC [3]	MIC (Penicillium purpurogenum)
Nc1ccc2c(c1)COB2O [Compound B6, 5-Amino-1,3-dihydro-2,1-benzoxaborol-1-ol]	very little ability to inhibit	> 64 µg/mL	> 64 µg/mL	> 64 µg/mL	> 64 µg/mL	> 64 µg/mL	> 64 µg/mL	> 64 µg/mL	64 µg/mL (≈ 430 µM)	200 µg/mL (≈ 1340 µM)	–	–	–	–
Nc1ccc2c(c1)B(O)OCC2 [Compound B7, 7-amino-3,4-dihydro-1H-2,1-benzoxaborinin-1-ol]	very little ability to inhibit	–	–	–	–	–	–	–	25 µg/mL (≈ 153 µM)	> 200 µg/mL	–	–	–	–
O=C(O)c1ccc2c(c1)COB2O [Compound B10, 1-hydroxy-1,3-dihydro-2,1-benzoxaborole-5-carboxylic acid]	–	–	–	–	–	–	–	–	100 µg/mL (≈ 562 µM)	200 µg/mL (≈ 1120 µM)	> 200 µg/mL	> 200 µg/mL	> 200 µg/mL	> 200 µg/mL
N#Cc1ccc2c(c1)COB2O [Compound B11, 1-hydroxy-1,3-dihydro-2,1-benzoxaborole-5-carbonitirile]	–	–	–	–	–	–	–	–	12.5 µg/mL (≈ 78.6 µM)	100 µg/mL (≈ 629 µM)	100 µg/mL (≈ 629 µM)	100 µg/mL (≈ 629 µM)	50 µg/mL (≈ 315 µM)	25 µg/mL (≈ 157 µM)
